Target: T1, BdorOR13a/BdorOrco (Bactrocera dorsalis, UniProt A0A0G2UKH1)
T1 construct: gene OR13a; full-length 441-residue OR co-expressed with BdorOrco; pcDNA3.1(+) with mCherry reporter in HEK 293 cells (also pT7Ts in Xenopus oocytes); with Odorant receptor coreceptor
T1 sequence (A0A0G2UKH1 1-441): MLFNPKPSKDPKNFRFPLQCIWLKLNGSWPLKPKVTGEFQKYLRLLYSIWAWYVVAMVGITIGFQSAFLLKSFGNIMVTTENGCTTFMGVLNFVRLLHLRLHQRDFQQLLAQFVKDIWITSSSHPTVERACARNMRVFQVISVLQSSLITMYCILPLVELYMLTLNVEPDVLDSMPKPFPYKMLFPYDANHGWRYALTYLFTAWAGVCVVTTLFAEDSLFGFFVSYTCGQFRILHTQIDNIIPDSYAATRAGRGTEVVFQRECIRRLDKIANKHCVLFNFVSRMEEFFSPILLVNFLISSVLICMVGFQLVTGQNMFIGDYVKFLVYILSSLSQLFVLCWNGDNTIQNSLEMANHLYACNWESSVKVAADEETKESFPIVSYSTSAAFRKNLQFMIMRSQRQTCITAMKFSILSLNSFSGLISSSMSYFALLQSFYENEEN
T1 sequence (B2Z9Z0 1-473 partner): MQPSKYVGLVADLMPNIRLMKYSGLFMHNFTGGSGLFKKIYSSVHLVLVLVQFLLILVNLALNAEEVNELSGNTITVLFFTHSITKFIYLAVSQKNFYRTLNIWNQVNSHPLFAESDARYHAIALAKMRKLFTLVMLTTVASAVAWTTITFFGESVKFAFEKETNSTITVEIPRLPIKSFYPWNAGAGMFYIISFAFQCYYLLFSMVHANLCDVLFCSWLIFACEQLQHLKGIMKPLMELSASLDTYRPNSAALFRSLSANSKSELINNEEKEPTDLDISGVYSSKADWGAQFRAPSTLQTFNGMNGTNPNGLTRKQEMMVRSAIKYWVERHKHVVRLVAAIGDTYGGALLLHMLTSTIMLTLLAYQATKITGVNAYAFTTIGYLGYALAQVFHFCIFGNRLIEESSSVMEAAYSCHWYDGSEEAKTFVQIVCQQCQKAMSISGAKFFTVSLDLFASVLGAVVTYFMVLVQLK
Experiment: calcium imaging (Fluo-4 AM), HEK […] cells
Format: cell-based

For `C=CC(O)CCCCC` (stereo not shown) [1-octen-3-ol], the EC50 was 11.3 µM.

Reference: paper PMC9932091, “Two odorant receptors regulate 1-octen-3-ol induced oviposition behavior in the oriental fruit fly” (Communications Biology, 2023)
